The values below come from patent publication EP3147364A1, “ANTIVIRAL AGENTS COMPRISING AN OLIGONUCLEOTIDE-LIPID CONJUGATE FORMING G-QUADRUPLEX” (priority 2015, dated 2017).

Series [1] deals with NL4.3-Ren. The series is described as follows: Transfection experiment: pNL4.3-Ren viruses produced in 293T cells in presence of drug, quantified and tested for infectivity on SupT1 cells. The format is cell-based, HIV-1. The following applies: drug added to transfected 293T cells for 24h; supernatants on SupT1 cells (Fig. 7a).
Series [2] deals with NL4.3-Ren. The format is cell-based, HIV-1. The following applies: text does not say which of assays A and B (Figs. 4 and 5).
The nature of series [3]: Cytotoxicity (viability) assay in Huh7/Scr cells (CytoTox-Glo). The following applies: human. The format is cell-based.
Another series relates to Luc-Jc1 virus. The series is described as follows: HCVcc infection: Luc-Jc1 virus on Huh7/Scr cells, Firefly luciferase.

Take `CC(C)CN(C[C@@H](O)[C@H](Cc1ccccc1)NC(=O)O[C@H]1CCOC1)S(=O)(=O)c1ccc(N)cc1` [APV, Amprenavir]: the “inhibition of infection by viruses produced in presence of drug” value with NL4.3-Ren [1] is listed as “inhibition of infection is detected”. Take `CCCC/C=C\C/C=C\CCCCCCCCCOCC(O)CO` (centres unmarked) [3-[(10Z,13Z)-octadeca-10,13-dien-1-yloxy]propane-1,2-diol]: the antiviral effect result in the series on NL4.3-Ren [2] is on record as “no effect”.

What is called CC50 is the concentration at which the toxic effect on the cells reaches its halfway point. High values mean lower toxicity to the cells, low ones greater toxicity to the cells. What is called EC50 is the concentration needed to bring the measured effect to its halfway point. Low readings indicate an effect from little substance, high ones a need for much substance. Compound `Cc1nc(Nc2ncc(C(=O)Nc3c(C)cccc3Cl)s2)cc(N2CCN(CCO)CC2)n1` [Dasatinib] yielded a CC50 at 72 h in series [3] of 20.3 µM. This compound returned an EC50 in the series with Luc-Jc1 virus (Hepatitis C virus, Huh-7, 72 h) of 1470 nM. In the series with Luc-Jc1 virus (Selectivity Index from EC50 and CC50), this compound displayed an SI of 13.81.
